From US10883137B2, “Method to detect activity of a polymerase” (MAX-PLANCK-GESELLSCHAFT ZUR FÖRDERUNG DER WISSENSCHAFTEN …, priority 2015, dated 2021)
Blank lines part the entries; values can stand above or below the molecule they belong to.

Legend:
Format in all cases: biochemical
[1] = biological target: human POLRMT (mitochondrial DNA-directed RNA polymerase) (Homo sapiens, UniProt O00411); assay: Inhibitor activity determination, mitochondrial RNA-polymerase, 384-well dose-response format; conditions: for Hill slope: four-parameter non-linear regression fit; for res. activity at highest conc.: highest assay conc. 200 μM; for res. activity at highest conc. / res. activity at lowest conc.: relative to positive control; for res. activity at lowest conc.: lower limit of 5 μM; for IC50: 384-well, 8-point dilution series, 200 μM to 5 μM, 500 μM dNTPs
Source text: The assay protocol largely corresponds to the setup described in example 1 (Determination of activity of mitochondrial RNA-polymerase using the same initiator and probes than in example 1). For determination of the activity, however, the reaction mix always contains the nucleotide triphosphate mix, to enforce potential competition between inhibitor compound and substrate. Negative control samples are set up such that no template DNA (pUC-LSP) is included in the reaction mixture.
Pre-diluted protein samples are mixed with the dNTP-mixture in a reaction buffer, containing 10 mM TrisHCl pH 7.5, 10 mM MgCl2, 40 mM NaCl, 2 mM GSH, 0.01% (w/v) Tween-20 and 0.1 mg/mL BSA, to yield final assay concentrations of 7.5 nM (POLRMT), 90 nM (TFAM), 20 nM (TFB2M) and 500 μM (dNTPs). 5 μL of this mix are dispensed, depending on the chosen microtiter plate format, using multi-channel pipettes or a Thermo Multidrop® dispenser into the wells of a microtiter plate and incubated at room-temperature (RT) for 10 minutes.
Equal amounts of DMSO without any compound are added to positive control samples. An incubation step at RT for 10 minutes is applied to allow binding of compounds.
The enzymatic reaction is started by the addition of 5 μL of a mix of template DNA (pUC-LSP) in reaction buffer to a final concentration of 0.5 nM. The following mixing, incubation and detection steps correspond to the steps described in example 1.

[2] = biological target: T1, human mitochondrial DNA-polymerase (POLG) (Homo sapiens, UniProt P54098); assay: Inhibitor activity determination using human mitochondrial DNA-polymerase, 384-well dose-response format
T1 sequence (P54098 1-1239): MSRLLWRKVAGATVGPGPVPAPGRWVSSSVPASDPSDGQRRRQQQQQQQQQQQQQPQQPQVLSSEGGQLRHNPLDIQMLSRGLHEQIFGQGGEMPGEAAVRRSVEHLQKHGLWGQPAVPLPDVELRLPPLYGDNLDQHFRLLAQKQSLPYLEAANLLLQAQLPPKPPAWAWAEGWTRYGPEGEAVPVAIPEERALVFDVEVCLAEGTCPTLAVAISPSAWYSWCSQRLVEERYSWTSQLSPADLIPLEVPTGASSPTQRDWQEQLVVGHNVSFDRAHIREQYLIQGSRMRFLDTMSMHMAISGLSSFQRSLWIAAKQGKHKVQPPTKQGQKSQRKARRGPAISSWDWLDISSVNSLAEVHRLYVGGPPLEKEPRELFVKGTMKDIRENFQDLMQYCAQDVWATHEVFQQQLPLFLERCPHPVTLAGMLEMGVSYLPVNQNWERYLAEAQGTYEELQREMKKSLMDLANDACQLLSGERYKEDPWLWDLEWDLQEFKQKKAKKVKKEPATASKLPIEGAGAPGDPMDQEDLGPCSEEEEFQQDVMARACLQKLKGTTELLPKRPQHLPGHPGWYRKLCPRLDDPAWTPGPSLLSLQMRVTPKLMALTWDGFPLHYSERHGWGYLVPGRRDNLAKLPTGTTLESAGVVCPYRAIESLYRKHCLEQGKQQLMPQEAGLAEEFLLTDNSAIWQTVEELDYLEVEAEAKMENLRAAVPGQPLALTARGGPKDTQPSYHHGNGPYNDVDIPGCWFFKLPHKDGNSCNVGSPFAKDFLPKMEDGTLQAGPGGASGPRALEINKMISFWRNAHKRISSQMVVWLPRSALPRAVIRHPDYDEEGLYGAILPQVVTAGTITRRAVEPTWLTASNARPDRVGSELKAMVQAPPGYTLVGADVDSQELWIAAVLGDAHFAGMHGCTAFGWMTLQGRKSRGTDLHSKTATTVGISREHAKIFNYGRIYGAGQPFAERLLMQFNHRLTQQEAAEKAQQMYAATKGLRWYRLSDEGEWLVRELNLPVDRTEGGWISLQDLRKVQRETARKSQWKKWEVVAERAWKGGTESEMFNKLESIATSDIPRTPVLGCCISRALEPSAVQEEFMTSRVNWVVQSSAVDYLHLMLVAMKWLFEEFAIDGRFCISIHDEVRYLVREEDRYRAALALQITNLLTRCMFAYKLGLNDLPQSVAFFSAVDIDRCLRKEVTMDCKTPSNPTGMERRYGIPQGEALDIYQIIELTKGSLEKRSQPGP
T1 sequence (Q9UHN1 1-485 partner): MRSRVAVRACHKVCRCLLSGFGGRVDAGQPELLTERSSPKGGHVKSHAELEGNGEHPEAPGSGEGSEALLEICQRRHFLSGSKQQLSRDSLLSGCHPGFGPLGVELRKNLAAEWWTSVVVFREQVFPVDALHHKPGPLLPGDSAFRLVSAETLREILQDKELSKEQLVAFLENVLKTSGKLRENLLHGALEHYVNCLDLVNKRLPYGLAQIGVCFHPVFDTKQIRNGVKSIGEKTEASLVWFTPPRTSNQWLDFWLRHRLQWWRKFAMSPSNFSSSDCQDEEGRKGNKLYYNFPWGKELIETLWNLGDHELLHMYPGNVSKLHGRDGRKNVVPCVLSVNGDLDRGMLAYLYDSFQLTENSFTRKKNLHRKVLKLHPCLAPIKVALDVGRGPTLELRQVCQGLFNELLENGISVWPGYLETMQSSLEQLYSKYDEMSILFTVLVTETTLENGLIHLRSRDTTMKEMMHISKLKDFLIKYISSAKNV
Source text: The assay protocol largely corresponds to the setup described in example 1 (Determination of activity of mitochondrial RNA-polymerase using the same initiator and probes than in example 1). For determination of the activity of the mitochondrial replication, however, the two-subunit complex of the mitochondrial DNA-polymerase (POLG, NM_002693.2, NM_007215.3), the […] TWINKLE (NM_021830.4) and mitochondrial single-strand binding protein (SSBP1, NM_001256510.1) are used. Also, the reaction mix always contains the substrate nucleotide mix, to enforce potential competition between inhibitor compound and substrate.
For DNA-replication the template is generated using a circular, single-stranded DNA formed from pBlueskript SK+. To this circular, ssDNA, a primer with 42-nucleotide poly-T is annealed to form a fork structure. To make dsDNA, the primer is elongated with KOD polymerase, which synthesizes DNA around the entire circle, until again it reaches the primer. At this point DNA-synthesis stops and a double-stranded DNA template of about 3000 bp with an artificial replication fork is formed.
For activity determination, negative control samples are set up such that no template DNA is included in the assay mixture. Assay components are mixed in a buffer containing 25 mM TrisHCl pH 8.0, 5 mM MgCl2, 2 mM GSH, and 0.1 mg/mL BSA, to yield final assay concentrations of 30 nM POLG, 15 nM TWINKLE, 20 nM SSBP1, 250 μM dNTPs, 4 mM ATP as well as the two DNA-probes at 3 nM concentration each.
5 μL of this mix are dispensed, depending on the chosen microtiter plate format, using multi-channel pipettes or a Thermo Multidrop® dispenser into the wells of a microtiter plate and incubated at room-temperature (RT) for 10 minutes.
Chemical compounds under scrutiny in the assay are applied using contact-free acoustic droplet-dispensing (Labcyte Echo®) from 10 mM compound stocks (in 100% DMSO) in an appropriate 8-point dilution series to ensure accurate fitting of the resulting activity data (i.e. upper and lower asymptote reached). Equal amounts of DMSO without any compound are added to positive control samples. An incubation step at RT for 10 minutes is applied to allow binding of compounds.
The enzymatic reaction is started by the addition of 5 μL of a mix template DNA in reaction buffer to a final concentration of 5 nM. Following incubation for 1 h at 37° C., the reaction is stopped by addition of a detection mix, containing 3 nM streptavidin-coupled Eu-cryptate pre-incubated with an excess of an unspecific random oligonucleotide, in 20 mM Tris-HCl pH 8.0, 400 mM NaCl and 50 mM EDTA. HTRF-signals are measured following over-night incubation at room-temperature. […]

[3] = biological target: mitochondrial RNA-polymerase (POLRMT) (Homo sapiens, UniProt O00411); assay: Activity of mitochondrial RNA-polymerase with and without TEFM (in vitro transcription, FRET detection); conditions: TEFM 100 nM; product formation quenched after 2 h
Protocol: FIG. 8: is displaying the result of a comparative study of the effect of adding TEFM to the in vitro transcription reaction, as described in example 6. Two transcription reactions were set up either with or without the addition of TEFM (100 nM) and product formation quenched after 2 h. The specific FRET signal of the reaction without TEFM was used as a reference and normalized to 100%, while for the reaction including TEFM a signal increase of around 18% (±10%) was measured under the chosen conditions.
To enhance the enzymatic turnover and, thus, specific signal intensity of the mitochondrial in vitro transcription reaction, the mitochondrial transcription elongation factor (TEFM, NP_078959.3.) can be added to the assay reagent mixture.
The general workflow of the assay and composition of assay reagents are described in Posse et al (Nucl. Acids Res. 2015). A linearized pUC18 plasmid comprising the human mitochondrial light-strand promotor sequence (LSP) is used as transcription plasmid.
Adaptations made to the original protocol relate to the different detection method applied and correspond to the set-up described in example 1.

human POLRMT (mitochondrial DNA-directed RNA polymerase), sequence (O00411 42-1230): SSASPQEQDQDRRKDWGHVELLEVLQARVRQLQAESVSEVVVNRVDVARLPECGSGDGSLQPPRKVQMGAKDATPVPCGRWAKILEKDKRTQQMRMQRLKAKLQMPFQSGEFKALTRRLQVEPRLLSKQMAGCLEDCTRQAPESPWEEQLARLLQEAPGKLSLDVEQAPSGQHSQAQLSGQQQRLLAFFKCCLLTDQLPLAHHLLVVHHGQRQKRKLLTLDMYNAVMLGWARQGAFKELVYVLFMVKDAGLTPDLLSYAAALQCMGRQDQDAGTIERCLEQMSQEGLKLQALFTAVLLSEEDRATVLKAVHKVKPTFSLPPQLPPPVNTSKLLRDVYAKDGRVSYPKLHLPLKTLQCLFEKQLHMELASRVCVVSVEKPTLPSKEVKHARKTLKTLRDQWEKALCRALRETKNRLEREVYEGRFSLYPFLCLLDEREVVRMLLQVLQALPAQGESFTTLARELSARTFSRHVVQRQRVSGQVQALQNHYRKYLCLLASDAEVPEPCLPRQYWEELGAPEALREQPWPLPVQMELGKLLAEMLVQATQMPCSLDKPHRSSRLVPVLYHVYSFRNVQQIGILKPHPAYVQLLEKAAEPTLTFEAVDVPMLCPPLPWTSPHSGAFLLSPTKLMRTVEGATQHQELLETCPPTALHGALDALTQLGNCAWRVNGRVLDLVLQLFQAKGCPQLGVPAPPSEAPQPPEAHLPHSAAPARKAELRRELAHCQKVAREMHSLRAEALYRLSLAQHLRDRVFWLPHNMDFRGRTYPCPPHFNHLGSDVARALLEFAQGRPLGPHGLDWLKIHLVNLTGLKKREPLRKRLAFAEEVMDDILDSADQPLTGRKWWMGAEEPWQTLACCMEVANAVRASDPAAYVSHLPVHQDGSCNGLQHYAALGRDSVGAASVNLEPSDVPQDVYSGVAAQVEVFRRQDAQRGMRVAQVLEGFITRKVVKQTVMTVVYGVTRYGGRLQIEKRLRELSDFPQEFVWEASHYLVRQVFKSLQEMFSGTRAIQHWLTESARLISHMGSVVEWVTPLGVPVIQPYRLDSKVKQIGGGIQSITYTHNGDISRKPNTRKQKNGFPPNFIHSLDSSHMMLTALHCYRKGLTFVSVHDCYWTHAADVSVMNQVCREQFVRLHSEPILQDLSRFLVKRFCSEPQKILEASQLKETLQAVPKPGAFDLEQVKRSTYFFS
mitochondrial RNA-polymerase (POLRMT), sequence (O00411 42-1230): as above

Hill slope [1]: −2.05
res. activity at highest conc. [1]: 65.5%
res. activity at lowest conc. [1]: 96.5%
Molecule: C[C@@]1(O)[C@H](O)[C@@H](COP(=O)(O)OP(=O)(O)OP(=O)(O)O)O[C@H]1n1cnc2c(=O)[nH]c(N)nc21 [2′methyl/OH-GTP]

IC50 ([2]; 384-well, 200 μM to 5 μM, 250 μM dNTPs): 54.1 µM
Hill slope ([2]; four-parameter non-linear regression fit): −0.9462
res. activity at highest conc. ([2]; highest assay conc. 200 μM): 22.6%
res. activity at lowest conc. ([2]; lower limit of 5 μM): 92.79%
Molecule: Cc1cn([C@H]2C[C@H](O)[C@@H](COP(=O)(O)OP(=O)(O)OP(=O)(O)O)O2)c(=O)[nH]c1=S [4-Thiothymidine-5′-Triphosphate]

IC50 [1]: 73.4 µM
Hill slope [1]: −2.15
res. activity at highest conc. [1]: 46.9%
res. activity at lowest conc. [1]: 88.32%
Molecule: C[C@@]1(F)[C@H](O)[C@@H](COP(=O)(O)OP(=O)(O)OP(=O)(O)O)O[C@H]1n1cnc2c(=O)[nH]c(N)nc21 [2′methyl/F-GTP]

IC50 [1]: 84.5 µM
Hill slope [1]: −0.85
res. activity at highest conc. [1]: 8.6%
res. activity at lowest conc. [1]: 102%
Molecule: 2′methyl/OH-O-UTP

signal increase of specific FRET signal versus reaction without TEFM (100%) [3]: around 18%
B1: TEFM: mitochondrial transcription elongation factor (TEFM, NP_078959.3) (protein, UniProt Q96QE5 36-360, looked up)
Transcription elongation …: KSTTPKKITPNVTFCDENAKEPENALDKLFSSEQQASILHVLNTASTKELEAFRLLRGRRSINIVEHRENFGPFQNLESLMNVPLFKYKSTVQVCNSILCPKTGREKRKSPENRFLRKLLKPDIERERLKAVNSIISIVFGTRRIAWAHLDRKLTVLDWQQSDRWSLMRGIYSSSVYLEEISSIISKMPKADFYVLEKTGLSIQNSSLFPILLHFHIMEAMLYALLNKTFAQDGQHQVLSMNRNAVGKHFELMIGDSRTSGKELVKQFLFDSILKADPRVFFPSDKIVHYRQMFLSTELQRVEELYDSLLQAIAFYELAVFDSQP
